Results from ChEMBL document CHEMBL2424561, “Discovery of new antitubercular agents by combining pyrazoline and benzoxazole pharmacophores: design, synthesis and insights into the binding interactions” (2013).
≈ marks a conversion by molar mass, not a printed value.

System: Mycobacterium tuberculosis
Assay: Antitubercular activity against multidrug-resistant Mycobacterium tuberculosis after 6 weeks
Type: functional

`CC(=O)N1N=C(c2ccccc2)CC1c1cc(Cl)c2oc(S)nc2c1` (stereo not given) and `CC(=O)N1N=C(c2ccccc2)CC1c1cc(Cl)c2oc(N)nc2c1` (stereo not given) are the same in MIC: 25 µg/mL (≈ 67.2 µM) for the first, 25 µg/mL (≈ 70.5 µM) for the second.

Going from `CC(=O)N1N=C(c2ccccc2Br)CC1c1cc(Cl)c2oc(S)nc2c1` (stereo not given) to `CC(=O)N1N=C(c2ccccc2Br)CC1c1cc(Cl)c2oc(N)nc2c1` (stereo not given), the MIC rises from 12.5 µg/mL (≈ 27.7 µM) to 25 µg/mL (≈ 57.6 µM) (2-fold).

`COc1cc(C2CC(c3ccccc3)=NN2C(C)=O)cc(N)c1O` (stereo not given) and `CC(=O)N1N=C(c2ccccc2)CC1c1cc(N)c(O)c(Cl)c1` (stereo not given) are the same in MIC: 25 µg/mL (≈ 76.8 µM) for the first, 25 µg/mL (≈ 75.8 µM) for the second.

`COc1cc(C2CC(c3ccc(Cl)cc3Cl)=NN2C(C)=O)cc(N)c1O` (stereo not given) and `COc1cc(C2CC(c3ccc(Cl)cc3Cl)=NN2C(C)=O)cc2nc(N)oc12` (stereo not given) are the same in MIC: 12.5 µg/mL (≈ 31.7 µM) for the first, 12.5 µg/mL (≈ 29.8 µM) for the second.

`COc1cc(C2CC(c3ccc(F)cc3)=NN2C(C)=O)cc(N)c1O` (stereo not given) and `COc1cc(C2CC(c3ccc(F)cc3)=NN2C(C)=O)cc2nc(N)oc12` (stereo not given) are the same in MIC: 25 µg/mL (≈ 72.8 µM) for the first, 25 µg/mL (≈ 67.9 µM) for the second.

First: COc1cc(C2CC(c3ccccc3Br)=NN2C(C)=O)cc(N)c1O (stereo not given)
Second: CC(=O)N1N=C(c2ccccc2Br)CC1c1cc(N)c(O)c(Cl)c1 (stereo not given)
The MIC of the first is 7.7-fold lower: 3.25 µg/mL (≈ 8.04 µM) for the first, 25 µg/mL (≈ 61.2 µM) for the second.

Compared with `CC(=O)N1N=C(c2ccccc2)CC1c1ccc(O)c(N)c1` (stereo not given), `CC(=O)N1N=C(c2ccccc2Br)CC1c1ccc(O)c(N)c1` (stereo not given) is 2-fold lower in MIC: 25 µg/mL (≈ 84.6 µM) for the first, 12.5 µg/mL (≈ 33.4 µM) for the second.

Going from `COc1cc(C2CC(c3ccccc3)=NN2C(C)=O)cc2nc(N)oc12` (stereo not given) to `COc1cc(C2CC(c3ccccc3)=NN2C(C)=O)cc2nc(S)oc12` (stereo not given), the MIC rises from 6.25 µg/mL (≈ 17.8 µM) to 12.5 µg/mL (≈ 34 µM) (2-fold).

`COc1cc(C2CC(c3ccccc3Br)=NN2C(C)=O)cc2nc(N)oc12` (stereo not given) and `COc1cc(C2CC(c3ccccc3Br)=NN2C(C)=O)cc2nc(S)oc12` (stereo not given) are the same in MIC: 25 µg/mL (≈ 58.2 µM) for the first, 25 µg/mL (≈ 56 µM) for the second.

`CC(=O)N1N=C(c2ccccc2)CC1c1ccc2oc(N)nc2c1` (stereo not given) and `CC(=O)N1N=C(c2ccccc2)CC1c1ccc2oc(S)nc2c1` (stereo not given) are the same in MIC: 25 µg/mL (≈ 78 µM) for the first, 25 µg/mL (≈ 74.1 µM) for the second.

Going from `CC(=O)N1N=C(c2ccccc2Br)CC1c1ccc2oc(N)nc2c1` (stereo not given) to `CC(=O)N1N=C(c2ccccc2Br)CC1c1ccc2oc(S)nc2c1` (stereo not given), the MIC falls from 12.5 µg/mL (≈ 31.3 µM) to 6.25 µg/mL (≈ 15 µM) (2-fold).

Compared with `COc1cc(C2CC(c3ccc(Cl)cc3Cl)=NN2C(C)=O)cc2nc(S)oc12` (stereo not given), `COc1cc(C2CC(c3ccc(F)cc3)=NN2C(C)=O)cc2nc(S)oc12` (stereo not given) is 2-fold lower in MIC: 12.5 µg/mL (≈ 28.6 µM) for the first, 6.25 µg/mL (≈ 16.2 µM) for the second.

Work on `NNC(=O)c1ccncc1` [ISONIAZID] yielded an MIC of 6.25 µg/mL (≈ 45.6 µM).
